According to patent publication US20030054985A1, “N-cadherin modulated migration, invasion, and metastasis” (priority 2000, published 2003):
“Also recorded” adds a separate entry of the source.

Tests used:
Format in all cases: cell-based, human
MAPK = assay: Anti-phospho-MAPK immunoblot of cell lysates
Protocol: FIG. 12. N-cadherin synergizes with FGF-2 in promoting MAPK activation and MMP-9 production. A. MCF-7 breast cancer cells expressing either control vector (control) or N-cadherin (N-cad-5) were treated with or without FGF-2 and the relative activation of MAPK was assessed by blotting the lysates with anti phospho-MAPK (P-MAPK) (upper panel A, lanes 1-4) against the total levels of MAPK in the same lysates (T-MAPK) (lower panel A, lanes 1-4). B. MCF-7 breast cancer cells expressing N-cadherin (N-cad-5) were treated with or without FGF-2 in the absence or presence of a potent inhibitor of MAPK ([…]) and cell lysates were blotted with anti-P-MAPK antibodies (lower panel B) or assayed for MMP (Matrix Metallo Protease) production (upper panel B).
To determine whether N-cadherin/FGF-2-stimulated expression of MMP-9 is caused by increased MAPK activity, levels of MAPK activation in N-cadherin-expressing MCF-7 cells (N-cad-5) were compared to those found in control MCF-7 cells (Neo-mass) in response to FGF-2. Serum-starved control and N-cad-5 cells were treated with 10 ng/mL FGF-2 for 10 min and 30 μg of cell lysate were subjected to SDS-PAGE and immunobloting with either anti-phospho-MAPK (P-MAPK) or anti-total MAPK (T-MAPK).

MMP-9 = assay: Zymography of conditioned media
Protocol: FIG. 9. FGF-2 stimulates Matrigel invasion of N-cadherin-expressing cells and expression of MMP-9. (A) Invasion through Matrigel-coated filters of control and N-cadherin-expressing cells, pretreated for 24 h with 10 ng/ml of FGF-2 or left untreated, as measured 5 h after inoculation into Transwell chambers. The invading cells were stained (see Materials and Methods) and photographed using a digital microscope camera. Each panel illustrates a sample representing three to six filters. (B) Gelatinolytic activity of conditioned media of control (Neo-mass) (lanes 1 and 2) or N-cadherin-transfected MCF-7 cells (N-cad-mas, N-cad-5, and N-cad-17; lanes 3-8) that were either treated with FGF-2, or left untreated, as indicated. […]
FIG. 12. […] A. MCF-7 breast cancer cells expressing either control vector (control) or N-cadherin (N-cad-5) were treated with or without FGF-2 and the relative activation of MAPK was assessed by blotting the lysates with anti phospho-MAPK (P-MAPK) (upper panel A, lanes 1-4) against the total levels of MAPK in the same lysates (T-MAPK) (lower panel A, lanes 1-4). […]
Secreted metalloproteinases were detected and characterized by zymography (Nakajima I et al., 1995, Br. J. Cancer. 71:1039-1045). […]

Neo-mass cell = assay: Matrigel invasion assay after FGF-2 pretreatment; settings: 10 ng/ml FGF-2 for 24 h, 5 h of incubation
Protocol: (§1) FIG. 9. FGF-2 stimulates Matrigel invasion of N-cadherin-expressing cells and expression of MMP-9. (A) Invasion through Matrigel-coated filters of control and N-cadherin-expressing cells, pretreated for 24 h with 10 ng/ml of FGF-2 or left untreated, as measured 5 h after inoculation into Transwell chambers. The invading cells were stained (see Materials and Methods) and photographed using a digital microscope camera. Each panel illustrates a sample representing three to six filters. (B) Gelatinolytic activity of conditioned media of control (Neo-mass) (lanes 1 and 2) or N-cadherin-transfected MCF-7 cells (N-cad-mas, N-cad-5, and N-cad-17; lanes 3-8) that were either treated with FGF-2, or left untreated, as indicated. […] The ability of cells to migrate through control (migration) or invade through Matrigel-coated filters (invasion) was measured in a Boyden chamber, 8-micron Transwell filters, which were coated with or without 50 μg Matrigel (Becton Dickinson & Co.), were used according to standard protocols (Albini A et al., 1987, Cancer Res 47:3239-3245). […] Values for invasion were expressed as the average number of migrated cells bound per microscopic field over four fields per assay and expressed as averages for triplicate experiments.

[1] = tested on: N-cadherin-expressing MCF-7 cells; assay: Matrigel invasion assay after FGF-2 pretreatment; settings: N-cad mass, N-cad-5 and N-cad-17; 10 ng/ml FGF-2 for 24 h, 5 h of incubation
Protocol: as §1

MMP = assay: Zymography of conditioned media
Protocol: (§2) FIG. 9. FGF-2 stimulates Matrigel invasion of N-cadherin-expressing cells and expression of MMP-9. (A) Invasion through Matrigel-coated filters of control and N-cadherin-expressing cells, pretreated for 24 h with 10 ng/ml of FGF-2 or left untreated, as measured 5 h after inoculation into Transwell chambers. The invading cells were stained (see Materials and Methods) and photographed using a digital microscope camera. Each panel illustrates a sample representing three to six filters. (B) Gelatinolytic activity of conditioned media of control (Neo-mass) (lanes 1 and 2) or N-cadherin-transfected MCF-7 cells (N-cad-mas, N-cad-5, and N-cad-17; lanes 3-8) that were either treated with FGF-2, or left untreated, as indicated. (C) Gelatinolytic activity of conditioned media of Neo-mass, N-cad-mass, N-cad-5, and N-cad- 17 that were pretreated for 24 h either with 10 ng/ml of FGF-2 (lanes 1, 3, 5 and 7, respectively) or 5 μg/ml insulin (lanes 2, 4, 6, and 8, respectively).
(§3) Secreted metalloproteinases were detected and characterized by zymography (Nakajima I et al., 1995, Br. J. Cancer. 71:1039-1045). Conditioned media were obtained by a 30-h incubation of N-cadherin and control transfected cells, which were treated overnight with or without FGF-2 (10 ng/ml) and heparin (0.1 mg/ml) in serum-free media. Conditioned media (20 μl) were loaded on 8% SDS PAGE gels that had been copolymerized with 1 mg/ml gelatin. Electrophoresis was performed under nonreducing conditions at 100 V for 2 h at 4° C. Gels were washed once for 30 min in 2.5% Triton X-100 to remove SDS, and were incubated in collagenase buffer (100 mM Tris-HCl pH 8.0, 5 mM CaCl2, 0.02% NaN3) for 40 h at 37° C. Gels were stained with 0.5% Coomassie blue in 30% methanol/10% acetic acid for 30 min at room temperature and destained in 30% methanol/10% acetic acid three times for 15 min. The presence of metalloproteinases was indicated by an unstained proteolytic zone in the substrate. […]

MMP-2 = assay: Zymography of conditioned media; settings: N-cadherin transfectants, FGF-2 10 ng/ml
Protocol: as §2, §3

[2] = tested on: N-cadherin-expressing cell lines (N-cad-mass, N-cad-5, N-cad-17); assay: Transwell migration after FGF-2 pretreatment; settings: pretreated 24 h with 10 ng/ml FGF-2, measured 5 h after inoculation into Transwell chambers
Protocol: (§4) FIG. 8. Stimulates cell migration of N-cadherin-expressing cells. The motility of control (Neo-mass) and N-cadherin-expressing cells (N-cad-mass, N-cad-5, and N-cad-17), pretreated for 24 h with 10 ng/ml of FGF-2 or left untreated, was measured 5 h after inoculation into the Transwell chambers. (A) The migrating cells were fixed, stained, and photographed; each panel represents an example of 3-6 replicates. (B) Bar graphs represent quantitation of triplicate wells. The experiment was repeated six times.
(§5) The ability of cells to migrate through control (migration) or invade through Matrigel-coated filters (invasion) was measured in a Boyden chamber, 8-micron Transwell filters, which were coated with or without 50 μg Matrigel (Becton Dickinson & Co.), were used according to standard protocols (Albini A et al., 1987, Cancer Res 47:3239-3245). Fibroblast conditioned medium, which was obtained by a 24-h incubation of NTH-3T3 cells with 50 μg/mL ascorbic acid in serum-free DME media, was placed in the lower chamber as a chemoattractant. […] Values for invasion were expressed as the average number of migrated cells bound per microscopic field over four fields per assay and expressed as averages for triplicate experiments.

Neo-mass cell line = assay: Transwell migration after FGF-2 pretreatment; settings: pretreated 24 h with 10 ng/ml FGF-2, measured 5 h after inoculation into Transwell chambers
Protocol: as §4, §5

[3] = N-cad-5 cells, FGF-2 plus inhibitor

COc1cccc(-c2cc(=O)c3ccccc3o2)c1N [PD 90859, reference compound] was tested, and the “phosphorylation of MAPK induced by FGF-2” value (MAPK; [3]) was “blocked effectively” and the “production of MMP-9 induced by FGF-2” value (MMP-9; [3]) was “blocked”.

“FGF-2: growth factor FGF-2, purchased from Pepro Tech” was tested, and the MAPK phosphorylation (MAPK; N-cad-5 cells, 10 ng/mL FGF-2 for 10 min) was “marked increase”, the “MAPK phosphorylation (ERK/P44 isoform)” value (MAPK; control MCF-7 cells, in the presence of FGF-2) was “only low levels of phosphorylation” and the “expression of MMP-9” value (MMP-9; all N-cadherin transfectants, FGF-2 10 ng/ml, conditioned media) was “dramatically increased; also recorded: stimulates”. For the same compound, the “invasion through Matrigel-coated filters” value (Neo-mass cell) was “not effect”, the “invasiveness through Matrigel-coated filters” value [1] was “further enhanced; also recorded: stimulates” and the MMP production (MMP; Neo-mass cells, FGF-2 10 ng/ml, conditioned media) was “no effect”. The MMP-2 production (MMP-2) was “absence of detectable effects”, the motility [2] was “dramatic increase” and the motility (Neo-mass cell line) was “did not affect”.

In the case of “insulin: Insulin from Sigma, used at a concentration that acts through the IGF-1 receptor”, the MMP levels (MMP; N-cad-mass, N-cad-5, N-cad-17, 5 μg/ml insulin for 24 h) is reported as “no effect”.
